{
  "source": "patent US9889093B2",
  "about": "“Application of andrographolide in the preparation of a pharmaceutical for treatment of inflammatory bowel disease, andrographolide enteric targeting micropellet, and method for preparation thereof” (TASLY PHARMACEUTICAL GROUP CO., LTD., priority 2013, dated 2018)",
  "type_in_all_cases": "in vivo",
  "key": {"[1]": {"tested_on": "TNBS-induced colitis mice", "test": "TNBS-induced UC (colitis) mouse model", "details": "for Body weight / Colon weight: oral twice daily; for Body weight / Colon weight / Colon scores / Colon indices / Decrease rate of colon specific weight: 7 days; for Colon scores: histopathological score 0-4; for Colon indices: percentage of colon weight to body weight; for Decrease rate of colon specific weight: vs model control group", "method": "5% (w/v) TNBS solution was diluted with double-distilled water and mixed with 50% (v/v) ethanol in equal volume to have 1.5% (w/v) TNBS solution. In the model control group, the mice were anesthetized with 1 wt % pentobarbital solution at a dose of 0.05 ml/10 g body weight. After being anesthetized, the mice were administrated with 1.5% (w/v) TNBS solution at a dose of 0.1 ml/mouse by gently inserting stomach perfusion device to about 3 cm depth via anus and arriving at the colon, and the IBD was induced. In the saline group, the saline was gently injected into the colon at a dose of 0.1 ml/mouse. In the normal control group, 50% (v/v) ethanol was gently injected into the colon at a dose of 0.1 ml mouse.\nAfter one week adaptive feeding, all animals were randomly divided into 5 groups according to body weight, 10 mice in one group: the normal control group, the model control group, the andrographolide low-dose group (20 mg/kg/d), the andrographolide high-dose group (40 mg/kg/d) and the positive control group (Sulfasalazine group, 300 mg/kg/d). Two hours after making model, the animals in each treating groups were orally administrated twice daily with the andrographolide and once daily in the positive control group. After successive administration for 7 days, the abdomen was opened 24 hours after the last administration to observe adhesion degree between the colon and other organs. The colon was separated and weighed.\n1. Body weight: after making model, body weight was measured every day to observe the change in the animals.\n2. Evaluation of inflammation: the abdomen was opened 24 hours after the last administration to observe adhesion degree between the colon and other organs. Every segment of the colon was taken out and weighed to calculate the percentage of the colon weight to body weight, as the colon index. The formula was presented as follows: Decrease rate of colon specific weight=(colon index of the model control group−colon index of the treatment group)/colon index of the model control group×100%\n3. Histopathological examination: a part of the colon was taken to prepare the pathological section, and the standard for score was as follows: • 0 score, no inflammatory symptoms; • 1 score, low-grade inflammation with no structure change; • 2 score, low-grade leukocyte infiltration; • 3 score, high-grade leukocyte infiltration, high vascular density, crypt extension, thickened colon wall and superficial ulcer • 4 score, high-grade leukocyte infiltrating exceeding to mucous layer, crypt extension, decrease of goblet cell, high vascular density, thickened colon wall and extensive ulcer\nSPSS11.5 software was used for analysis and the data were expressed as x±S. Variance analysis was used for comparison of significant difference among groups."}, "[2]": {"tested_on": "DSS-induced UC mice", "test": "DSS-induced UC mouse model, disease active index", "text": "4 Dose Designing and Grouping • 4.1 Grouping: quarantine-qualified 84 mice were randomly divided into 6 groups: the model control group, the positive control group, the tested drug low-dose intragastric group, the tested drug high-dose intragastric group, the tested drug low-dose intracolonical group and the tested drug high-dose intracolonical group, 14 mice per group. All animals drank 5% DSS solution daily for consecutive 14 days to establish UC model. Animals were administrated with the drug for treatment on the 2nd day after being given 5% DSS drinking water. • 4.2 Dose: in this study, dose of administration of the mice in all groups was designed on the basis of client's requirements, and the same doses were adopted in both intragastric and intracolonical groups. Animals were not treated in the model control group, the positive control group (mesalazine enteric tablet, 227.5 mg·kg^−1·d^−1), the andrographolide low-dose intragastric group (60 mg·kg^1·d^−1), the andrographolide high-dose intragastric group (180 mg·kg^−1·d^−1), the andrographolide low-dose intracolonical group (60 mg·kg^−1·d^−1) and the andrographolide high-dose intracolonical group (180 mg·kg^−1·d^−1).\n5 Method • 5.1 Method of making UC model: all animals drank 5% DSS solution daily for consecutive 14 days. • 5.2 Method of administration: on the 2nd day after modeling, the mice were treated intragastrically or intracolonically with the drug at 1 mL/100 g once a day for consecutive 14 days. • 5.3 Method for sampling in experiment: 2 hours after the last administration, the mice were killed by cervical vertebra dislocation and abdomen was opened to separate the colon. Along mesenteric side, the intestinal lumen was cut and rinsed with 4° C. normal saline and spread on a plastic plate. • 5.4 Method for evaluating disease active index (DAI): the disease active index was assessed at the 7th and 14th day after administration. The method was presented together with the following three parameters: the body weight loss percentages (unchanged BW: 0 score, 1˜5: 1 score, 5˜10: 2 score, 10˜15: 3 score, more than 15: 4 score), stool viscosity (normal stool: 0 score, loosen stool: 2 score, diarrhea: 4 score) and blood stool (normal stool: 0 score, occult blood stool: 2 score and positive blood stool: 4 score). Total score of three parameters was divided by 3 to give the DAI, namely DAI=(BW index score+stool character score+stool blood score)/3.\n6 Observation Indices • 6.1 Observation: the general clinical symptoms in the mice were observed daily from the beginning to the end of the experiment, and the stool, mental status and death status were recorded. • 6.2 Body weight: BW was recorded weekly from the beginning to the end of the experiment. • 6.3 Calculation of DAI: DAI was calculated on the 7th and 14th day after administration so as to assess disease activity. • 6.4 The colon mucosal tissue 8˜10 cm away from the anus was sampled, embedded with paraffin and stained with routine HE. Colon mucosal injury was observed by a microscope and histological injury was scored based on the following indices: ulcer inflammatory granuloma, fibrosis and pathological degree.\nData were expressed as mean+standard deviation (x±S). All numerical variables were analyzed with SPSS13.0 software by one-way ANOVA. T-test analysis was used for inter-group comparison."}, "[3]": {"tested_on": "zebra fish", "test": "Exploration of concentration in zebra fish (toxicity and death)", "details": "0.1 to 500 μg/mL in fish farm water, 30 zebra fishes per concentration", "method": "Fish farm water of wild-type AB strain zebra fish Crohn's disease model (1 L reverse osmosis water was added with 200 mg instant sea salt with a conductivity of […], pH value of 6.9˜7.2 and hardness of 53.7˜71.6 mg/L CaCO3) was added with the andrographolide in the concentrations of 0 μg/mL, 0.1 μg/mL, 1 μg/mL, 10 μg/mL, 100 μg/mL and 500 μg/mL. At each concentration, 30 zebra fishes were treated, during which death number of the zebra fishes was counted daily and the dead fishes were removed in time. After treatment, the death number of the zebra fishes in each group was analyzed statistically to draw the optimum concentration-effect curve by using JMP software and calculate MNLC. […] As a result, the following four concentrations were selected for efficacy evaluation in Crohn's disease in this study: 50 μg/mL, 100 μg/mL, 250 μg/mL and 500 μg/mL."}, "[4]": {"details": "andrographolide high-dose 40 mg/kg/d"}, "[5]": {"details": "andrographolide low-dose 20 mg/kg/d"}, "[6]": {"details": "andrographolide high-dose 180 mg/kg, intracolonical"}, "[7]": {"details": "andrographolide high-dose 180 mg/kg, intragastric"}, "[8]": {"details": "andrographolide low-dose 60 mg/kg, intracolonical"}, "[9]": {"details": "andrographolide low-dose 60 mg/kg, intragastric"}},
  "note": "Marks after values point to notes of the source that are not given here.",
  "data": [
    {"smiles": "C=C1CC[C@@H]2[C@](C)(CO)[C@H](O)CC[C@@]2(C)[C@@H]1C/C=C1/C(=O)OC[C@H]1O", "note": "[Andrographolide]", "values": [
      {"measurement": "Body weight increase compared with the model control group", "setting": "[1]; FIG. 1, treated groups", "value": "increased faster than that in the model control group"},
      {"measurement": "Body weight", "setting": "[1]; [4]", "value": "20.95 ± 1.09", "unit": "g"},
      {"measurement": "Colon weight", "setting": "[1]; [4]", "value": "0.29 ± 0.09", "unit": "g"},
      {"measurement": "Body weight", "setting": "[1]; [5]", "value": "19.95 ± 2.05", "unit": "g"},
      {"measurement": "Colon weight", "setting": "[1]; [5]", "value": "0.43 ± 0.12", "unit": "g"},
      {"measurement": "Colon scores", "setting": "[1]; [4]", "value": "1.8**"},
      {"measurement": "Colon scores", "setting": "[1]; [5]", "value": 3.2},
      {"measurement": "Colon indices", "setting": "[1]; [4]", "value": "1.38 ± 0.46"},
      {"measurement": "Colon indices", "setting": "[1]; [5]", "value": "2.24 ± 0.90"},
      {"measurement": "Intestinal elasticity compared with the model control group", "setting": "[1]; treated groups, after 7 days", "value": "higher than that in the model control group"},
      {"measurement": "Decrease rate of colon specific weight", "setting": "[1]; [4]", "value": 58.96, "unit": "%"},
      {"measurement": "Decrease rate of colon specific weight", "setting": "[1]; [5]", "value": 33.20, "unit": "%"},
      {"measurement": "DAI on the 7th day", "setting": "[2]; [6]", "value": "1.36 ± 0.64"},
      {"measurement": "DAI on the 14th day", "setting": "[2]; [6]", "value": "1.35 ± 0.18"},
      {"measurement": "DAI on the 7th day", "setting": "[2]; [7]", "value": "1.43 ± 0.38"},
      {"measurement": "DAI on the 14th day", "setting": "[2]; [7]", "value": "1.64 ± 0.83"},
      {"measurement": "DAI on the 7th day", "setting": "[2]; [8]", "value": "1.67 ± 0.65"},
      {"measurement": "DAI on the 14th day", "setting": "[2]; [8]", "value": "1.77 ± 0.95"},
      {"measurement": "DAI on the 7th day", "setting": "[2]; [9]", "value": "1.63 ± 0.99"},
      {"measurement": "DAI on the 14th day", "setting": "[2]; [9]", "value": "2.01 ± 0.80"},
      {"measurement": "Toxicity and death in zebra fish", "setting": "[3]", "value": "no toxicity and death were found"}
    ]}
  ]
}
